These results are taken from patent EP4741383A1, “COMPOUND AND USE THEREOF AS ANTI-CANCER DRUG” (Tyligand Bioscience (Shanghai) Limited, priority 2023, dated 2025).

The first experiment concerns HCT116. Briefly: CellTiter-Glo cell proliferation inhibition, HCT116. As to conditions: Homo sapiens, HCT-116; HCT116 (colorectal cancer cell line), 72 hours; read-out: Example IC50 (µM) HCT116. It is filed as cell-based. An excerpt: (§1) This experiment used the CellTiter-Glo® Luminescent Cell Viability Assay kit from Promega to evaluate the inhibitory activity of the disclosed compounds on the proliferation of the following cell lines: 4T1 (mouse breast cancer cell line), A20 (mouse B-cell lymphoma cell line), A2780 (human ovarian cancer cell line), AsPC-1 (pancreatic cancer cell line), B16F10 (mouse melanoma cell line), BT549 (human breast cancer cell line), CT26 (mouse colon cancer cell line), EMT6 (mouse breast cancer cell line), HCT116 (colorectal cancer cell line), Jurket (acute leukemia cell line), KP-4 (pancreatic cancer cell line), LL/2 (mouse lung cancer cell line), MCF7 (breast cancer cell line), […] NCI-H358 (lung cancer cell line), NCI-H727 (gastric cancer cell line), NCI-1944 (lung cancer cell line), Pan 04.03 (pancreatic cancer cell line), SK-BR-3 (breast cancer cell line), THP-1 (leukemia cell line), TOV21G (ovarian cancer cell line), U87MG (glioblastoma cell line), and UM-UC-a (bladder cancer cell line).
(§2) All cell lines were purchased from Nanjing Kebai Biotechnology Co., Ltd. The following materials were also used in the experiment: RPMI-1640 media (HyClone, catalog number #SH30022.01), McCoy's 5A media (Thermo Fisher, catalog number #16600-082), MCDB 105 media (Sigma, catalog number #117-500), Medium 199 (Thermo Fisher, catalog number #11150-059), MEM media (Thermo Fisher, catalog number #11095-080), DMEM media (HyClone, catalog number #SH30027.01), fetal bovine serum (FBS) (ExCell, catalog number # M4530), Sodium Pyruvate (100Mm) (Thermo Fisher, catalog number #11360-070), and MEM NEAA (100X) (Thermo Fisher). […]
(§3) Cells were cultured according to the instructions provided by the cell supplier (Nanjing Kebai Biotechnology Co., Ltd.). […] Suspension or adherent cells were collected, and cell viability was determined using the trypan blue exclusion method, ensuring that cell viability was above 90%. […]
Consider `O=C(Nc1ccc(-c2csc(CO)c2)cc1)C(=O)Nc1ccc(-c2cc3cc(F)c(-c4nnn[nH]4)cc3n2C2CCC2)cc1` [Example 1], for which the IC50 came out at 0.111 µM.
Still for that read-out and setting: as for `CC1(n2c(-c3ccc(NC(=O)C(=O)Nc4ccc(N5CCC6(CCOC6)CC5)cc4)cc3)cc3cc(F)c(-c4nnn[nH]4)cc32)CCC1` [Example 68], the figure is 0.078 µM.
Regarding `O=C(Nc1ccc(-c2cc3cc(F)c(-c4nnn[nH]4)cc3n2C2CCC2)cc1)C(=O)Nc1ccc(N2CCC3(CCC(O)C3)CC2)cc1` (stereo not drawn) [Example 100], the IC50 was determined as 0.044 µM.

A further experiment relates to SK-BR-3. Briefly: CellTiter-Glo cell proliferation inhibition, SK-BR-3. In kind it is cell-based. As to conditions: Homo sapiens; SK-BR-3 (breast cancer cell line), 72 hours; read-out: Example IC50 (µM) SK-BR-3.
Text: as §1, §2, §3
As to `O=C(Nc1ccc(-c2csc(CO)c2)cc1)C(=O)Nc1ccc(-c2cc3cc(F)c(-c4nnn[nH]4)cc3n2C2CCC2)cc1` [Example 1], the IC50 was found to be 0.14 µM.
For `CC1(n2c(-c3ccc(NC(=O)C(=O)Nc4ccc(N5CCC6(CCOC6)CC5)cc4)cc3)cc3cc(F)c(-c4nnn[nH]4)cc32)CCC1` [Example 68], the IC50 came to 0.057 µM.
Consider `O=C(Nc1ccc(-c2cc3cc(F)c(-c4nnn[nH]4)cc3n2C2CCC2)cc1)C(=O)Nc1ccc(N2CCC3(CCC(O)C3)CC2)cc1` (stereo not drawn) [Example 100], for which the concentration for half-maximal inhibition (IC50) amounted to 0.044 µM.

For the next experiment, the system named is A20. The experiment is described as follows: CellTiter-Glo cell proliferation inhibition, A20. In kind it is cell-based. As to conditions: A20 (mouse B-cell lymphoma cell line), 72 hours; read-out: Example IC50 (µM) A20.
Text: as §1, §2, §3
Take `O=C(Nc1ccc(-c2csc(CO)c2)cc1)C(=O)Nc1ccc(-c2cc3cc(F)c(-c4nnn[nH]4)cc3n2C2CCC2)cc1` [Example 1]: the IC50 was 0.077 µM.
`CC1(n2c(-c3ccc(NC(=O)C(=O)Nc4ccc(N5CCC6(CCOC6)CC5)cc4)cc3)cc3cc(F)c(-c4nnn[nH]4)cc32)CCC1` [Example 68]: the IC50 was 0.075 µM.
On the same count and under the same terms, as for `O=C(Nc1ccc(-c2cc3cc(F)c(-c4nnn[nH]4)cc3n2C2CCC2)cc1)C(=O)Nc1ccc(N2CCC3(CCC(O)C3)CC2)cc1` (stereo not drawn) [Example 100], the figure is 0.128 µM.
